In PubChem BioAssay (NCI):
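Exposure lasted 48 hours, with cells grown in 96-well plates and compounds tested at five concentrations. TGI marks complete inhibition of growth.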

Legend:
Assay in all cases: growth of human tumour cells (NCI), 48 h
[1] = system: MDA-N
[2] = system: A549 NSCLC
[3] = system: HL-60(TB) leukemia
[4] = system: SK-MEL-2 melanoma
[5] = system: SK-MEL-28 melanoma
[6] = system: TK-10 renal
[7] = system: HCC-2998 colon
[8] = system: BT-549 breast
[9] = system: EKVX NSCLC
[10] = system: RXF 393 renal
[11] = system: LOX IMVI melanoma
[12] = system: 786-0 renal
[13] = system: MOLT-4 leukemia
[14] = system: U251 CNS
[15] = system: HOP-92 NSCLC
[16] = system: IGROV1 ovarian
[17] = system: SF-539 CNS
[18] = system: SF-268 CNS
[19] = system: MCF7 breast
[20] = system: HOP-62 NSCLC
[21] = system: OVCAR-8 ovarian
[22] = system: CAKI-1 renal
[23] = system: SF-295 CNS
[24] = system: NCI-H23 lung
[25] = system: UACC-257 melanoma
[26] = system: SNB-19 CNS
[27] = system: HCT-116 colon
[28] = system: HS 578T breast
[29] = system: HCT-15 colon
[30] = system: MDA-MB-435
[31] = system: NCI/ADR-RES ovarian
[32] = system: A498 renal
[33] = system: HT29 colon
[34] = system: SNB-75 CNS
[35] = system: KM12 colon
[36] = system: SN12C renal
[37] = system: UACC-62 melanoma
[38] = system: NCI-H226 lung
[39] = system: MDA-MB-231 breast
[40] = system: K-562 leukemia
[41] = system: OVCAR-3 ovarian
[42] = system: OVCAR-4 ovarian
[43] = system: SW-620 colon
[44] = system: OVCAR-5 ovarian
[45] = system: COLO 205 colon
[46] = system: PC-3 prostate
[47] = system: ACHN renal
[48] = system: SR leukemia
[49] = system: SK-OV-3 ovarian
[50] = system: RPMI-8226 leukemia
[51] = system: CCRF-CEM leukemia
[52] = system: NCI-H460 lung
[53] = system: DU-145 prostate
[54] = system: M14 melanoma
[55] = system: UO-31 renal
[56] = system: T-47D breast
[57] = system: NCI-H522 lung
[58] = system: SK-MEL-5 melanoma
[59] = system: MALME-3M melanoma

SMILES: COc1ccc(/C=C2\CCS(=O)(=O)c3ccccc3C2=O)cc1
- TGI [1]: 77.3 µM
- TGI [2]: > 100 µM
- TGI [3]: 66.4 µM
- TGI [4]: 96.4 µM
- TGI [5]: 72 µM
- TGI [6]: 61.6 µM
- TGI [7]: 38.6 µM
- TGI [8]: 79.8 µM
- TGI [9]: 46.4 µM
- TGI [10]: 46.4 µM
- TGI [11]: 40.4 µM
- TGI [12]: 34.6 µM
- TGI [13]: 65.2 µM
- TGI [14]: 37.7 µM
- TGI [15]: 71.7 µM
- TGI [16]: 43.1 µM
- TGI [17]: 67.4 µM
- TGI [18]: 98.2 µM
- TGI [19]: > 100 µM
- TGI [20]: > 100 µM
- TGI [21]: 53.4 µM
- TGI [22]: 67.5 µM
- TGI [23]: 98.9 µM
- TGI [24]: 47.6 µM
- TGI [25]: 56.5 µM
- TGI [26]: 70.6 µM
- TGI [27]: 31.2 µM
- TGI [28]: 82.8 µM
- TGI [29]: 43.1 µM
- TGI [30]: 89.8 µM
- TGI [31]: 50 µM
- TGI [32]: 37.1 µM
- TGI [33]: 35.9 µM
- TGI [34]: > 100 µM
- TGI [35]: 31 µM
- TGI [36]: 77.3 µM
- TGI [37]: 42.4 µM
- TGI [38]: 62.8 µM
- TGI [39]: 75.3 µM
- TGI [40]: > 100 µM
- TGI [41]: 93.8 µM
- TGI [42]: 58.8 µM
- TGI [43]: 49.1 µM
- TGI [44]: > 100 µM
- TGI [45]: 30.5 µM
- TGI [46]: 75.3 µM
- TGI [47]: 47.2 µM
- TGI [48]: 40.5 µM
- TGI [49]: > 100 µM
- TGI [50]: 61 µM
- TGI [51]: 68.5 µM
- TGI [52]: 57 µM
- TGI [53]: 61 µM
- TGI [54]: > 100 µM
- TGI [55]: 38 µM
- TGI [56]: 74.3 µM

SMILES: N#CC(=N)c1ncn(-c2ccc(N)cc2)c1N
- TGI [1]: > 100 µM
- TGI [2]: > 100 µM
- TGI [3]: > 100 µM
- TGI [4]: > 100 µM
- TGI [5]: > 100 µM
- TGI [6]: > 100 µM
- TGI [7]: > 100 µM
- TGI [8]: > 100 µM
- TGI [9]: > 100 µM
- TGI [11]: > 100 µM
- TGI [12]: > 100 µM
- TGI [13]: > 100 µM
- TGI [14]: > 100 µM
- TGI [16]: > 100 µM
- TGI [17]: > 100 µM
- TGI [18]: > 100 µM
- TGI [19]: > 100 µM
- TGI [20]: > 100 µM
- TGI [21]: > 100 µM
- TGI [22]: > 100 µM
- TGI [23]: > 100 µM
- TGI [24]: > 100 µM
- TGI [25]: > 100 µM
- TGI [26]: > 100 µM
- TGI [27]: > 100 µM
- TGI [28]: > 100 µM
- TGI [29]: > 100 µM
- TGI [30]: > 100 µM
- TGI [57]: > 100 µM
- TGI [31]: > 100 µM
- TGI [32]: > 100 µM
- TGI [33]: > 100 µM
- TGI [34]: > 100 µM
- TGI [35]: > 100 µM
- TGI [36]: > 100 µM
- TGI [37]: > 100 µM
- TGI [38]: > 100 µM
- TGI [39]: > 100 µM
- TGI [40]: > 100 µM
- TGI [41]: > 100 µM
- TGI [42]: > 100 µM
- TGI [43]: > 100 µM
- TGI [44]: > 100 µM
- TGI [45]: > 100 µM
- TGI [46]: > 100 µM
- TGI [47]: > 100 µM
- TGI [48]: > 100 µM
- TGI [49]: > 100 µM
- TGI [50]: > 100 µM
- TGI [51]: > 100 µM
- TGI [52]: > 100 µM
- TGI [53]: > 100 µM
- TGI [58]: > 100 µM
- TGI [54]: > 100 µM
- TGI [55]: > 100 µM
- TGI [59]: > 100 µM
- TGI [56]: > 100 µM

SMILES: CCOC(=O)C(Cc1ccc(OC(=O)c2ccc(OC)cc2)cc1)NC(=O)C(F)(F)F (stereo not given)
- TGI [1]: > 100 µM
- TGI [2]: > 100 µM
- TGI [3]: > 100 µM
- TGI [4]: > 100 µM
- TGI [6]: > 100 µM
- TGI [7]: > 100 µM
- TGI [8]: > 100 µM
- TGI [9]: > 100 µM
- TGI [10]: 73.2 µM
- TGI [11]: > 100 µM
- TGI [12]: > 100 µM
- TGI [13]: > 100 µM
- TGI [14]: > 100 µM
- TGI [15]: > 100 µM
- TGI [16]: > 100 µM
- TGI [17]: > 100 µM
- TGI [18]: > 100 µM
- TGI [19]: > 100 µM
- TGI [20]: > 100 µM
- TGI [21]: > 100 µM
- TGI [22]: > 100 µM
- TGI [23]: > 100 µM
- TGI [24]: > 100 µM
- TGI [25]: > 100 µM
- TGI [26]: > 100 µM
- TGI [27]: > 100 µM
- TGI [28]: > 100 µM
- TGI [29]: > 100 µM
- TGI [30]: > 100 µM
- TGI [57]: > 100 µM
- TGI [31]: > 100 µM
- TGI [32]: > 100 µM
- TGI [33]: > 100 µM
- TGI [34]: 46.5 µM
- TGI [35]: > 100 µM
- TGI [36]: > 100 µM
- TGI [37]: > 100 µM
- TGI [38]: > 100 µM
- TGI [39]: > 100 µM
- TGI [40]: > 100 µM
- TGI [41]: > 100 µM
- TGI [42]: > 100 µM
- TGI [43]: > 100 µM
- TGI [44]: > 100 µM
- TGI [45]: > 100 µM
- TGI [46]: > 100 µM
- TGI [47]: > 100 µM
- TGI [49]: > 100 µM
- TGI [50]: > 100 µM
- TGI [51]: > 100 µM
- TGI [52]: > 100 µM
- TGI [53]: > 100 µM
- TGI [58]: > 100 µM
- TGI [54]: > 100 µM
- TGI [55]: > 100 µM
- TGI [59]: > 100 µM
- TGI [56]: > 100 µM
